Experimental findings from US11878965B2, “Inhibitors of peptidylarginine deiminases” (Gilead Sciences, Inc., priority 2020, dated 2024) are described below.

The target in the first assay is human PAD4 (Homo sapiens (Human), UniProt Q9UM07). The experiment in a line: In Vitro PAD4 BAEE Biochemical Assay. The conditions noted are these: human PAD4, BAEE substrate; 5 nM PAD4, 2 mM calcium chloride, 3 mM BAEE; geometric mean of multiple experiments. An outline of the steps: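 Deimination of BAEE substrate (3 mM) measured as ammonia via o-phthalaldehyde–DTT isoindole fluorescence, 405/535 nm. Tag-free bacterially expressed human PAD4 at 5 nM with 2 mM calcium chloride, pH 7.6 MOPS buffer, 30 min compound preincubation then 2 h reaction, both at 25 °C.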
Chain of human PAD4 (Q9UM07 2-663): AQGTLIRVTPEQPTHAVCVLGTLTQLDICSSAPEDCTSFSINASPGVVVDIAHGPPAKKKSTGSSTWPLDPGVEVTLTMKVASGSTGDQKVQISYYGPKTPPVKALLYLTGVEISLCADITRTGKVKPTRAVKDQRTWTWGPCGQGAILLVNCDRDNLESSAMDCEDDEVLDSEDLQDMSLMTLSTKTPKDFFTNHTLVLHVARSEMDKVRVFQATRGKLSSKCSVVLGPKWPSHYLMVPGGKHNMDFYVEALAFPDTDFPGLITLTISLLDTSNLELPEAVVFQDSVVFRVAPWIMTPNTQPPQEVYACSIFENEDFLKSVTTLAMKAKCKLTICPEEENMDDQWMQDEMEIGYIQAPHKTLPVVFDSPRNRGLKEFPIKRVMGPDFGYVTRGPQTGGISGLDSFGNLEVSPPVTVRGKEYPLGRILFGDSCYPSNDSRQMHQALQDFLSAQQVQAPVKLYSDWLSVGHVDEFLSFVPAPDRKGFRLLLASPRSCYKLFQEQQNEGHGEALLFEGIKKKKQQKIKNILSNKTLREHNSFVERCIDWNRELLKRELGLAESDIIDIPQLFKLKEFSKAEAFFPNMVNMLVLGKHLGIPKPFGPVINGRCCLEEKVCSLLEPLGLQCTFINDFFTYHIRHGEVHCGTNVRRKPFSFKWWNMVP
As to `[2H][C@]1(N)CCCN(C(=O)c2cc(OC)c3c(c2)nc(-c2cc4ccc(N(C(F)F)S(C)(=O)=O)nc4n2CC2CC2)n3C)C1` [Example 46, (S)-N-(2-(5-(3-aminopiperidine-1-carbonyl-3-d)-7-methoxy-1-methyl-1H-benzo[d]imidazol-2-yl)-1-(cyclopropylmethyl)-1H-pyrrolo[2,3-b]pyridin-6-yl)-N-(difluoromethyl) methanesulfonamide], the IC50 is 1160 nM. In the case of `Cc1cc2c(cc1C(=O)N1CCC[C@@H](N)C1)nc(-c1cc3ccc(N(C(F)F)S(C)(=O)=O)nc3n1CC1CC1)n2C` [Example 58, (R)-N-(2-(5-(3-aminopiperidine-1-carbonyl)-1,6-dimethyl-1H-benzo[d]imidazol-2-yl)-1-(cyclopropylmethyl)-1H-pyrrolo [2,3-b]pyridin-6-yl)-N-(difluoromethyl) methanesulfonamide], the IC50 turned out to be 4340 nM. For the molecule `COc1cc(C(=O)N2CCC[C@@H](N)C2)cc2nc(-c3cc4ccc(N(C5CC5)S(C)(=O)=O)nc4n3CC3CC3)n(C)c12` [Example 17, (R)-N-(2-(5-(3-aminopiperidine-1-carbonyl)-7-methoxy-1-methyl-1H-benzo[d]imidazol-2-yl)-1-(cyclopropylmethyl)-1H-pyrrolo [2,3-b]pyridin-6-yl)-N-cyclopropylmethanesulfonamide], the IC50 is 88.5 nM.

On to `COc1cc(C(=O)N2C[C@H](N)CCN2C)cc2nc(-c3cc4ccc([C@@H](C)NC(=O)C56CC(C(F)(F)F)(C5)C6)nc4n3CC3CC3)n(C)c12` [Example 188, N-((R)-1-(2-(5-((R)-5-amino-2-methylhexahydropyridazine-1-carbonyl)-7-methoxy-1-methyl-1H-benzo[d]imidazol-2-yl)-1-(cyclopropylmethyl)-1H-pyrrolo[2,3-b]pyridin-6-yl)ethyl)-3-(trifluoromethyl)bicyclo [1.1.1]pentane-1-carboxamide], for which the IC50 was 149 nM.

Turning to `COc1cc(C(=O)N2[C@H]3CC[C@@H]2[C@H](N)C3)cc2nc(-c3cc4ccc([C@@H](C)NC(=O)[C@@H]5CC5(F)F)nc4n3CC3CC3)n(C)c12` [Example 202, (S)-N-((R)-1-(2-(5-((1R,2R,4S)-2-amino-7-azabicyclo[2.2.1]heptane-7-carbonyl)-7-methoxy-1-methyl-1H-benzo[d]imidazol-2-yl)-1-(cyclopropylmethyl)-1H-pyrrolo[2,3-b]pyridin-6-yl)ethyl)-2,2-difluorocyclopropane-1-carboxamide], the IC50 came to 58.7 nM. The same measure, in the same setting: to `CCN(c1ccc2cc(-c3nc4cc(C(=O)N5CCC[C@@H](N)[C@H]5C)cc(OC)c4n3C3CC3)n(CC3CC3)c2n1)S(C)(=O)=O` [Example 35, N-(2-(5-((2R,3R)-3-amino-2-methylpiperidine-1-carbonyl)-1-cyclopropyl-7-methoxy-1H-benzo[d]imidazol-2-yl)-1-(cyclopropylmethyl)-1H-pyrrolo [2,3-b]pyridin-6-yl)-N-ethylmethanesulfonamide] belongs 141 nM; to `COc1cc(C(=O)N2[C@H]3CC[C@@H]2[C@H](N)C3)cc2nc(-c3cc4ccc([C@@H](C)NC(=O)C5(OC)CCC5)cc4n3CC3CC3)n(C)c12` [Example 141, N-((R)-1-(2-(5-((1R,2R,4S)-2-amino-7-azabicyclo[2.2.1]heptane-7-carbonyl)-7-methoxy-1-methyl-1H-benzo[d]imidazol-2-yl)-1-(cyclopropylmethyl)-1H-indol-6-yl)ethyl)-1-methoxycyclobutane-1-carboxamide], 63.3 nM. `COc1cc(C(=O)N2CCC[C@@H](N)C2)cc2nc(-c3cc4ccc(N(c5ccccc5)S(C)(=O)=O)nc4n3CC3CC3)n(C)c12` [Example 13, (R)-N-(2-(5-(3-aminopiperidine-1-carbonyl)-7-methoxy-1-methyl-1H-benzo[d]imidazol-2-yl)-1-(cyclopropylmethyl)-1H-pyrrolo [2,3-b]pyridin-6-yl)-N-phenylmethanesulfonamide]: the IC50 turned out to be 3570 nM. As for `COc1cc(C(=O)N2CCC[C@@H](N)C2)cc2nc(-c3cc4ccc(NS(C)(=O)=O)cc4n3CC3CC3)n(C)c12` [Example 1, (R)-N-(2-(5-(3-aminopiperidine-1-carbonyl)-7-methoxy-1-methyl-1H-benzo[d]imidazol-2-yl)-1-(cyclopropylmethyl)-1H-indol-6-yl)methanesulfonamide], the IC50 stood at 1580 nM. For the molecule `COc1cc(C(=O)N2[C@H]3CC[C@@H]2[C@H](N)C3)cc2nc(-c3cc4ccc([C@@H](C)NS(=O)(=O)c5cnn(C)c5)nc4n3CC3CC3)n(C)c12` [Example 241, N-((R)-1-(2-(5-((1R,2R,4S)-2-amino-7-azabicyclo[2.2.1]heptane-7-carbonyl)-7-methoxy-1-methyl-1H-benzo[d]imidazol-2-yl)-1-(cyclopropylmethyl)-1H-pyrrolo[2,3-b]pyridin-6-yl)ethyl)-1-methyl-1H-pyrazole-4-sulfonamide], the IC50 was 76.7 nM.

Consider `COc1cc(C(=O)N2[C@H]3CC[C@@H]2[C@H](N)C3)cc2nc(-c3cc4ccc([C@@H](C)NC(=O)C56CC(C#N)(C5)C6)cc4n3CC3CC3)n(C)c12` [Example 134, N-((R)-1-(2-(5-((1R,2R,4S)-2-amino-7-azabicyclo[2.2.1]heptane-7-carbonyl)-7-methoxy-1-methyl-1H-benzo[d]imidazol-2-yl)-1-(cyclopropylmethyl)-1H-indol-6-yl)ethyl)-3-cyanobicyclo[1.1.1]pentane-1-carboxamide], for which the half-inhibitory concentration (IC50) was 18.2 nM. As to `COc1cc(C(=O)N2CCC[C@@H](N)C2)cc2nc(-c3cc4ccc([C@@H](C)NC(=O)C5CC5(F)F)cc4n3CC3CC3)n(C3CC3)c12` (stereo partly drawn) [Example 153, N-((R)-1-(2-(5-((R)-3-aminopiperidine-1-carbonyl)-1-cyclopropyl-7-methoxy-1H-benzo[d]imidazol-2-yl)-1-(cyclopropylmethyl)-1H-indol-6-yl)ethyl)-2,2-difluorocyclopropane-1-carboxamide], the IC50 turned out to be 102 nM. Still for that read-out and setting: to `COc1cc(C(=O)N2C[C@H](N)[C@@H]3CC[C@H]2C3)cc2nc(-c3cc4ccc([C@@H](C)NC(=O)C56CC(F)(C5)C6)nc4n3CC3CC3)n(C)c12` [Example 223, N-[(1R)-1-[2-[5-[(1S,4R,5R)-4-amino-2-azabicyclo[3.2.1]octane-2-carbonyl]-7-methoxy-1-methyl-benzimidazol-2-yl]-1-(cyclopropylmethyl)pyrrolo[2,3-b]pyridin-6-yl]ethyl]-3-fluorobicyclo[1.1.1]pentane-1-carboxamide] belongs 57.2 nM; to `Cc1cc2c(cc1C(=O)N1CCC[C@@H](N)C1)nc(-c1cc3ccc(N(C(F)F)S(C)(=O)=O)nc3n1CC1CC1)n2C1CC1` [Example 60, (R)-N-(2-(5-(3-aminopiperidine-1-carbonyl)-1-cyclopropyl-6-methyl-1H-benzo[d]imidazol-2-yl)-1-(cyclopropylmethyl)-1H-pyrrolo[2,3-b]pyridin-6-yl)-N-(difluoromethyl) methanesulfonamide], 2210 nM; to `C[C@@H](NC(=O)N(C)C)c1ccc2cc(-c3nc4cc(C(=O)N[C@H]5CNCC[C@@H]5F)c(F)cc4n3C)n(CC3CC3)c2n1` [Example 239, 2-(1-(cyclopropylmethyl)-6-((R)-1-(3,3-dimethylureido)ethyl)-1H-pyrrolo[2,3-b]pyridin-2-yl)-6-fluoro-N-((3S,4S)-4-fluoropiperidin-3-yl)-1-methyl-1H-benzo[d]imidazole-5-carboxamide], 166 nM.

For `CNC(=O)c1ccc2cc(-c3nc4cc(C(=O)N5C[C@H](N)CC[C@@H]5C)cc(OC)c4n3C)n(CC3CC3)c2n1` [Example 251, 2-(5-((2S,5R)-5-amino-2-methylpiperidine-1-carbonyl)-7-methoxy-1-methyl-1H-benzo[d]imidazol-2-yl)-1-(cyclopropylmethyl)-N-methyl-1H-pyrrolo[2,3-b]pyridine-6-carboxamide], the IC50 was 1720 nM. `COc1cc(C(=O)N2C[C@H](N)CCN2C)cc2nc(-c3cc4ccc([C@@H](C)NC(=O)C5CC(F)(F)C5)nc4n3CC3CC3)n(C)c12` [Example 162, N-((R)-1-(2-(5-((R)-5-amino-2-methylhexahydropyridazine-1-carbonyl)-7-methoxy-1-methyl-1H-benzo[d]imidazol-2-yl)-1-(cyclopropylmethyl)-1H-pyrrolo[2,3-b]pyridin-6-yl)ethyl)-3,3-difluorocyclobutane-1-carboxamide]: the IC50 was found to be 92.1 nM. Consider `COc1cc(C(=O)N2C[C@H](N)CCN2C)cc2nc(-c3cc4ccc([C@@H](C)NC(=O)c5cccc(F)c5C)nc4n3CC3CC3)n(C)c12` [Example 212, N-((R)-1-(2-(5-((R)-5-amino-2-methylhexahydropyridazine-1-carbonyl)-7-methoxy-1-methyl-1H-benzo[d]imidazol-2-yl)-1-(cyclopropylmethyl)-1H-pyrrolo[2,3-b]pyridin-6-yl)ethyl)-3-fluoro-2-methylbenzamide], for which the 50% inhibitory concentration (IC50) was 170 nM.

The same assay, now with this note: recombinant PAD4 5 nM, 2 mM calcium chloride, 3 mM BAEE substrate; geometric mean of multiple experiments.
In the case of `COc1cc(C(=O)N2C[C@H](N)[C@@H]3CC[C@H]2C3)cc2nc(-c3cc4ccc([C@@H](C)NC(=O)c5cnn(C6CC6)c5)nc4n3CC3CC3)n(C)c12` [Example 319, N-((R)-1-(2-(5-((1S,4R,5R)-4-amino-2-azabicyclo[3.2.1]octane-2-carbonyl)-7-methoxy-1-methyl-1H-benzo[d]imidazol-2-yl)-1-(cyclopropylmethyl)-1H-pyrrolo[2,3-b]pyridin-6-yl)ethyl)-1-cyclopropyl-1H-pyrazole-4-carboxamide], the IC50 stood at 58 nM. The same measure, in the same setting: to `C[C@@H](NC(=O)C1CCOCC1)c1ccc2cc(-c3nc4cc(C(=O)N5C[C@H](N)[C@@H]6CC[C@H]5C6)cc(F)c4n3C3CC3)n(CC3CC3)c2n1` [Example 304, N-((R)-1-(2-(5-((1S,4R,5R)-4-amino-2-azabicyclo[3.2.1]octane-2-carbonyl)-1-cyclopropyl-7-fluoro-1H-benzo[d]imidazol-2-yl)-1-(cyclopropylmethyl)-1H-pyrrolo[2,3-b]pyridin-6-yl)ethyl)tetrahydro-2H-pyran-4-carboxamide] belongs 48.6 nM.
